Experimental data reported in patent publication US9440933B2, “Azole derivative, method for producing same, intermediate compound, and agricultural or horticultural chemical agent and industrial material protecting agent” (KUREHA CORPORATION, priority 2011, dated 2016).

How the values were obtained:
[1] = tested on: Barley loose smut-causing microbe (Ustilago nuda); assay: Antimicrobial activity to various pathogenic microbes: U.n; conditions: 50 mg/L
Experimental: (§1) An inventive compound was dissolved in dimethylsulfoxide 2 ml. The solution 0.6 ml was added to a PDA medium (potato-dextrose-agar medium) 60 ml at around 60° C.
The plates were cultured at 25° C. for 14 days after inoculation and the diameter of the microbial colony was determined. Hyphal expansion-inhibiting rate was calculated according to the following equation: R=100(dc−dt)/dc (wherein, R: hyphal expansion-inhibiting rate (%), dc: diameter of microbial colony on non-treated flat plate, dt: diameter of microbial colony on chemically-treated flat plate).
(§2) The results thus obtained were evaluated in 5 stages according to the criteria below:
Barley loose smut-causing microbe (Ustilago nuda) U.n

[2] = tested on: Wheat eye spot-causing microbe (Pseudocercoporella herpotrichoides); assay: Antimicrobial activity to various pathogenic microbes: P.h; conditions: 50 mg/L
[3] = tested on: wheat leaf blight-causing microbe; assay: Antimicrobial activity to wheat leaf blight-causing microbe (PDA plate, hyphal expansion inhibition); format: cell-based, Septoria tritici; conditions: Concentration 50 mg/L, PDA medium, 25° C., 14 days
Experimental: In this Test Example, antimicrobial activity of the inventive compounds to wheat leaf blight-causing microbe was determined and compared with that of the comparative compound (1).

[4] = tested on: Wheat glume blotch-causing microbe (Phaeosphaeria nodorum); assay: Antimicrobial activity to various pathogenic microbes: P.n; conditions: 50 mg/L
[5] = tested on: wheat leaf rust-causing microbe; assay: Wheat leaf rust-controlling activity (foliar spray, pot test); format: in vivo, Puccinia recondita; conditions: Concentration 25 g/ha; wettable powder sprayed on wheat (Norin No. 61), 9 to 14 days after inoculation
[6] = tested on: wheat powdery mildew-causing microbes; assay: Controlling activity to wheat powdery mildew of seed treatment (pot test); format: in vivo, Erysiphe graminis f. sp tritici; conditions: 2 mg in DMSO applied to wheat seeds 1 g, 14 to 28 days after seeding
Experimental: Controlling activity to wheat powdery mildew was examined in a pot test. Each of the inventive compounds […]-53, and a comparative compound (1) was weighed in an amount of 2 mg and dissolved in DMSO (18 μl). The solution thus prepared was applied to wheat seeds 1 g in a vial, 8 wheat seeds were seeded in a 80 cm^2 pot. The wheat was grown, as water was supplied from blow, in a greenhouse where wheat powdery mildew-causing microbes are present abundantly. The incidence rate was determined and the controlling rate and additionally the controlling index calculated 14 to 28 days after seeding. The controlling rate was calculated and the wheat powdery mildew controlling index determined according to the following equation: Controlling rate=(1-Incidence rate in treated region/Incidence rate in non-treated region)×100(%) [table]

[7] = tested on: Apple alternaria blotch-causing microbe (Alternaria alternata); assay: Antimicrobial activity to various pathogenic microbes: A.m; conditions: 50 mg/L
Experimental: as §1
(§3) A flat plate containing a test microbe (wheat leaf blight-causing microbe) cultured separately was punched into pieces with a cork borer having a diameter of 4 mm and the circular plate obtained was placed on the flat plate media containing the chemical described above. The plates were cultured at 25° C. for 14 days after inoculation and the diameter of the microbial colony was determined. Hyphal expansion-inhibiting rate was calculated according to the following equation: R=100(dc−dt)/dc (wherein, R: hyphal expansion-inhibiting rate (%), dc: diameter of microbial colony on non-treated flat plate, dt: diameter of microbial colony on chemically-treated flat plate).
In this Test Example, the antimicrobial activity of the inventive compounds to various plant disease-causing fungi and industrial material-eroding microorganisms was studied by the method described in Example 1.
as §2
Apple alternaria blotch-causing microbe (Alternaria alternata) A.m

[8] = tested on: Sclerotinia rot-causing microbe (Sclerotinia sclerotiorum); assay: Antimicrobial activity to various pathogenic microbes: S.s; conditions: 50 mg/L
Experimental: as §1, §3, §2
Sclerotinia rot-causing microbe (Sclerotinia sclerotiorum) S.s

[9] = tested on: Rice bakanae disease-causing microbe (Gibberella fujikuroi); assay: Antimicrobial activity to various pathogenic microbes: G.f; conditions: 50 mg/L
Experimental: as §1, §3, §2

[10] = tested on: Wheat fusarium blight-causing microbe (Fusarium graminearum); format: cell-based; conditions: 50 mg/L
[11] = tested on: Rice blast-causing microbe (Pyricularia oryzae); format: cell-based; conditions: 50 mg/L
[12] = tested on: Cucumber Fusarium wilt-causing microbe (Fusarium oxysporum); assay: Antimicrobial activity to various pathogenic microbes: F.c; conditions: 50 mg/L
[13] = tested on: Gray mold-causing microbe (Botrytis cinerea); assay: Antimicrobial activity to various pathogenic microbes: B.c; conditions: 50 mg/L
[14] = tested on: Barley scald-causing microbe (Rhynchosporium secalis); assay: Antimicrobial activity to various pathogenic microbes: R.sec; conditions: 50 mg/L
[15] = tested on: wheat; assay: Damage to wheat (growth inhibition) by seed treatment (pot test); conditions: 2 mg in DMSO applied to wheat seeds 1 g, 14 to 28 days after seeding, larger index = smaller damage

| Structure (SMILES) | Growth inhibition (hyphal expansion-inhibiting rate grade) U.n [1] | Growth inhibition (hyphal expansion-inhibiting rate grade) P.h [2] | inhibition at 50 µg/mL ([3]; 336 h, read-out: Growth inhibition) | Growth inhibition (hyphal expansion-inhibiting rate grade) P.n [4] | Controlling index [5] | Controlling index Wheat powdery mildew [6] | Growth inhibition (hyphal expansion-inhibiting rate grade) A.m [7] | Growth inhibition (hyphal expansion-inhibiting rate grade) S.s [8] | Growth inhibition (hyphal expansion-inhibiting rate grade) G.f [9] | Growth inhibition (hyphal expansion-inhibiting rate grade) F.g [10] | Growth inhibition (hyphal expansion-inhibiting rate grade) P.o [11] | Growth inhibition (hyphal expansion-inhibiting rate grade) F.c [12] | Growth inhibition (hyphal expansion-inhibiting rate grade) B.c [13] | Growth inhibition (hyphal expansion-inhibiting rate grade) R.sec [14] | Damage index Growth inhibition [15] | Growth inhibition [3] |
| --- | --- | --- | --- | --- | --- | --- | --- | --- | --- | --- | --- | --- | --- | --- | --- | --- |
| CC(C)OC(=O)[C@]1(C)CC[C@H](Cc2ccc(Cl)cc2)[C@@]1(O)Cn1cncn1 (racemic) [Compound I-137, isopropyl-(1RS,2SR,3RS)-3-(4-chlorobenzyl)-2-hydroxy-1-methyl-2-(1H-1,2,4-triazol-1-ylmethyl)cyclopentanecarboxylate] | 5 (hyphal expansion-inhibiting rate: 80% or more) | 5 (hyphal expansion-inhibiting rate: 80% or more) | > 80% | 5 (hyphal expansion-inhibiting rate: 80% or more) | 5 (81 to 100) | 5 (Controlling rate: 40 or more) | 5 (hyphal expansion-inhibiting rate: 80% or more) | 5 (hyphal expansion-inhibiting rate: 80% or more) | 5 (hyphal expansion-inhibiting rate: 80% or more) | 5 (hyphal expansion-inhibiting rate: 80% or more) | 5 (hyphal expansion-inhibiting rate: 80% or more) | 5 (hyphal expansion-inhibiting rate: 80% or more) | 5 (hyphal expansion-inhibiting rate: 80% or more) | 5 (hyphal expansion-inhibiting rate: 80% or more) | 5 | – |
| CNC(=O)[C@]1(C)CC[C@H](Cc2ccc(Cl)cc2)[C@@]1(O)Cn1cncn1 (racemic) [Compound I-148, N-methyl-(1RS,2SR,3RS)-3-(4-chlorobenzyl)-2-hydroxy-1-methyl-2-(1H-1,2,4-triazol-1-ylmethyl)cyclopentane carboxyamide] | 5 (hyphal expansion-inhibiting rate: 80% or more) | 5 (hyphal expansion-inhibiting rate: 80% or more) | – | 5 (hyphal expansion-inhibiting rate: 80% or more) | 5 (81 to 100) | 5 (Controlling rate: 40 or more) | 5 (hyphal expansion-inhibiting rate: 80% or more) | 5 (hyphal expansion-inhibiting rate: 80% or more) | 5 (hyphal expansion-inhibiting rate: 80% or more) | 5 (hyphal expansion-inhibiting rate: 80% or more) | 5 (hyphal expansion-inhibiting rate: 80% or more) | 5 (hyphal expansion-inhibiting rate: 80% or more) | 5 (hyphal expansion-inhibiting rate: 80% or more) | 5 (hyphal expansion-inhibiting rate: 80% or more) | 5 | 5 (hyphal expansion-inhibiting rate: 80% or more) |
